These compounds were tested against NSP14 (Severe acute respiratory syndrome coronavirus 2, UniProt P0DTD1) (assay: NSP14 MTase inhibition assay at 37° C. (MTase-Glo SAH detection)). Conditions: 0.3 nM NSP14, 2.5 μM SAM, 2.5 μM GpppA RNA, 45 min at 37° C.; read-out: Nsp14 Mtase Inh. IC50.
Type: biochemical, SARS-CoV-2

Row | SMILES | IC50 [nM]
1 | Cc1c(S(=O)(=O)c2ccc3[nH]ncc3c2)cc(C(=O)N[C@H]2CN(c3ncc(F)cn3)CC23CC3)n1C [A.62] | 0.41
2 | Cc1c(S(=O)(=O)c2ccc(=O)n(C)c2)cc(C(=O)NCc2cccc3cnn(C)c23)n1C [A.15] | 13.4
3 | Cc1c(S(=O)(=O)c2ccc3[nH]ncc3c2)cc(C(=O)N[C@@H]2CCN(c3ncc(Cl)cn3)C2)n1C [A.42] | 0.42
4 | Cc1c(S(=O)(=O)c2ccc3nn[nH]c3c2)cc(C(=O)NCc2c(F)ccc3occc23)n1C [A.31, 4-((1H-benzo[d][1,2,3]triazol-6-yl)sulfonyl)-N-((5-fluorobenzofuran-4-yl)methyl)-1,5-dimethyl-1H-pyrrole-2-carboxamide] | 315
5 | CC(=O)Nc1ccc(S(=O)(=O)c2cc(C(=O)NCc3c(F)ccc4occc34)n(C)c2C)cc1 [A.30] | 243
6 | Cc1c(S(=O)(=O)c2ccc3[nH]ncc3c2)cc(C(=O)N[C@@H]2CCN(c3ccc(C(F)(F)F)nn3)C2)n1C [A.76] | 0.44
7 | COc1ccccc1CNC(=O)c1cc(S(=O)(=O)c2ccc3c(cnn3C)c2)c(C)n1C [A.23] | 68
8 | Cc1c(S(=O)(=O)c2cc(Cl)c3[nH]ncc3c2)cc(C(=O)N[C@@H]2CCN(c3ccnnc3)C2)n1C [A.119] | 0.37
9 | Cc1c(S(=O)(=O)c2ccc3occc3c2)cc(C(=O)NCc2cccc3cnn(C)c23)n1C [A.8] | 1.8
10 | Cc1c(S(=O)(=O)c2ccc3[nH]ncc3c2)cc(C(=O)N[C@@H]2CCN(c3ccc(C#N)cc3)C2)n1C [A.57] | 0.57
11 | Cc1c(S(=O)(=O)c2ccc3[nH]ncc3c2)cc(C(=O)N[C@@H]2CCN(c3ncc(C(F)(F)F)cn3)C2)n1C [A.52] | 0.3
12 | Cc1c(S(=O)(=O)c2ccc(F)cc2)cc(C(=O)NCc2cccc3cnn(C)c23)n1C [A.17] | 16
13 | Cc1c(S(=O)(=O)c2ccccc2)cc(C(=O)NCc2c(F)ccc3occc23)n1C [A.20] | 22
14 | Cc1c(S(=O)(=O)c2ccc3[nH]ncc3c2)cc(C(=O)N[C@@H]2CCN(c3ncncc3C#N)C2)n1C [A.121] | 0.3
15 | Cc1c(S(=O)(=O)c2ccc3[nH]ncc3c2)cc(C(=O)N[C@H]2CN(c3ccc(C#N)cn3)CC23CC3)n1C [A.110] | 0.7
16 | Cc1c(S(=O)(=O)c2ccc3c(cnn3C)c2)cc(C(=O)NCc2c(F)ccc3ncn(C4CC4)c23)n1C [A.4, N-[(3-cyclopropyl-5-fluoro-benzimidazol-4-yl)methyl]-1,5-dimethyl-4-(1-methylindazol-5-yl)sulfonyl-pyrrole-2-carboxamide] | 0.5
17 | COc1ccc(N2CC[C@@H](NC(=O)c3cc(S(=O)(=O)c4ccc5[nH]ncc5c4)c(C)n3C)C2)nn1 [A.88] | < 0.15

Row | SMILES | IC50 [nM]
18 | Cc1c(S(=O)(=O)c2ccc3[nH]ncc3c2)cc(C(=O)N[C@@H]2CCN(c3cccnn3)C2)n1C [A.99] | 0.38
19 | Cc1c(S(=O)(=O)c2ccc3[nH]ncc3c2)cc(C(=O)N[C@@H]2CCN(c3ccc(C#N)cn3)C2)n1C [A.72] | 0.29
20 | Cc1c(S(=O)(=O)c2cc(Cl)c3[nH]ncc3c2)cc(C(=O)N[C@@H]2CCN(c3ncc(F)cn3)C2)n1C [A.41] | < 0.15
21 | Cc1c(S(=O)(=O)c2ccc3[nH]ncc3c2)cc(C(=O)N[C@@H]2CCN(c3cnc(F)cn3)C2)n1C [A.50] | < 0.15
22 | Cc1c(S(=O)(=O)c2ccc3[nH]ncc3c2)cc(C(=O)N[C@@H]2CCN(Cc3ccc(C#N)cc3)C2)n1C [A.101] | 26
23 | Cc1c(S(=O)(=O)c2cccc(Cl)c2)cc(C(=O)NCc2cccc3cnn(C)c23)n1C [A.9] | 2.1
24 | Cc1c(S(=O)(=O)c2ccc3[nH]nc(F)c3c2)cc(C(=O)N[C@@H]2CCN(c3ccnnc3)C2)n1C [A.112] | 0.53
25 | O=C(N[C@@H]1CCN(c2ncc(F)cn2)C1)c1cc(S(=O)(=O)c2ccc3[nH]ncc3c2)c2n1CCC2 [A.68] | 0.36
26 | COCCn1c(C(=O)N[C@@H]2CCN(c3ncc(F)cn3)C2)cc(S(=O)(=O)c2ccc3[nH]ncc3c2)c1C [A.91] | 0.17
27 | Cc1c(S(=O)(=O)c2ccccc2)cc(C(=O)NCc2c(F)ccc3cnn(C4CC4)c23)n1C [A.10] | 4.9
28 | Cc1c(S(=O)(=O)c2ccc(C(N)=O)cc2)cc(C(=O)NCc2cccc3cnn(C)c23)n1C [A.21] | 53
29 | Cc1c(S(=O)(=O)c2cccc(C#N)c2)cc(C(=O)NCc2cccc3cnn(C)c23)n1C [A.6, 4-(3-cyanophenyl)sulfonyl-1,5-dimethyl-N-[(1-methylindazol-7-yl)methyl]pyrrole-2-carboxamide] | 1.7
30 | Cc1c(S(=O)(=O)c2ccc3[nH]ncc3c2)cc(C(=O)NC2CN(c3ncc(F)cn3)C[C@@H]2F)n1C (stereo partly shown) [A.46] | 0.77
31 | Cc1c(S(=O)(=O)c2ccc3[nH]ncc3c2)cc(C(=O)NCc2cccc3cnn(C)c23)n1C [A.3] | 0.35
32 | Cc1c(S(=O)(=O)c2ccc3[nH]ncc3c2)cc(C(=O)N[C@@H]2CCN(c3ncc(F)cn3)C2)n1CCO [A.90] | < 0.15
33 | Cc1c(S(=O)(=O)c2ccc3[nH]ncc3c2)cc(C(=O)N[C@@H]2CCN(c3ncc(F)cc3F)C2)n1C [A.54] | < 0.15
34 | Cc1c(S(=O)(=O)c2ccc3[nH]ncc3c2)cc(C(=O)NCc2cccc3cnn(C4CC4)c23)n1C [A.5] | 1.5

Same assay, conditions: 37° C., 0.3 nM NSP14, 2.5 μM SAM, 2.5 μM GpppA RNA; read-out: Nsp14 Mtase Inh. IC50

Row | SMILES | IC50 [nM]
35 | Cc1c(S(=O)(=O)c2ccc3[nH]ncc3c2)cc(C(=O)N[C@H]2Cc3ccccc32)n1C (single isomer, unassigned) [B.171] | 2.7
36 | Cc1c(S(=O)(=O)c2ccc3[nH]ncc3c2)cc(C(=O)NCc2c(F)ccc3c2N(C)C(=O)C3(F)F)n1C [B.74] | 0.5
37 | Cc1c(S(=O)(=O)c2ccc3[nH]ncc3c2)cc(C(=O)NCc2c(Cl)cnn2C)n1C1CC1 [B.188] | 1.6
38 | COCc1cc(S(=O)(=O)c2cc(C(=O)NCc3cccc4cnn(C5CC5)c34)n(C)c2C)cc2cn[nH]c12 [B.93] | 68
39 | Cc1nn(C)cc1CNC(=O)c1cc(S(=O)(=O)c2ccc3[nH]ncc3c2)c(C)n1C [B.152] | 20
40 | COCCn1c(C(=O)NCc2c(Cl)cnn2C)cc(S(=O)(=O)c2cc(Cl)c3[nH]ncc3c2)c1C [B.194] | 1.1
41 | O=C(O)CCn1ncc2ccc(F)c(CNC(=O)c3cc(S(=O)(=O)c4cc(Cl)c5[nH]ncc5c4)c4n3CCC4)c21 [B.151] | < 0.15
42 | Cc1c(S(=O)(=O)c2ccc3[nH]ncc3c2)cc(C(=O)NCc2cccn3ncnc23)n1C [B.148] | 7.4
43 | Cc1c(S(=O)(=O)c2ccc3[nH]ncc3c2)cc(C(=O)NC(C)c2ccnn2C)n1C (racemic) [B.172] | 24
44 | Cc1c(S(=O)(=O)c2ccc3[nH]ncc3c2)cc(C(=O)NCc2[nH]c(=O)ccc2Cl)n1C [B.190] | 3.3
45 | Cc1c(S(=O)(=O)c2ccc3[nH]ncc3c2)cc(C(=O)NCc2cccc3c(F)nn(C)c23)n1C [B.44] | 0.24
46 | Cc1c(S(=O)(=O)c2ccc3[nH]ncc3c2)cc(C(=O)NCc2nccn2C)n1C [B.131] | 79
47 | Cc1c(S(=O)(=O)c2cc(F)c3[nH]ncc3c2)cc(C(=O)NCc2cccc(CN3CCCC3)c2)n1C [B.59] | 41
48 | Cc1c(S(=O)(=O)c2ccc3c(=O)[nH]ccc3c2)cc(C(=O)NCc2c(F)ccc3cnn(C4CC4)c23)n1C [B.136] | < 0.15
49 | Cc1c(S(=O)(=O)c2cc(F)c3[nH]ncc3c2)cc(C(=O)NCc2ccnn2C)n1C [B.137] | 10
50 | Cc1c(S(=O)(=O)c2ccc3[nH]nc(F)c3c2)cc(C(=O)NCc2c[nH]c(=O)c3cccnc23)n1C [B.175] | 3.3
51 | Cc1c(S(=O)(=O)c2ccc3[nH]ncc3c2)cc(C(=O)NCc2c(F)cc(CCN(C)C)cc2F)n1C [B.114] | 184
52 | Cc1c(S(=O)(=O)c2ccc3[nH]ncc3c2)cc(C(=O)NCc2cccc3nnn(C4CC4)c23)n1C [B.66] | < 0.15

Row | SMILES | IC50 [nM]
53 | Cc1c(S(=O)(=O)c2ccc(C(F)(F)F)cc2)cc(C(=O)NCc2cccc3cnn(C)c23)n1C [B.6] | 35
54 | Cc1c(S(=O)(=O)c2ccc3[nH]ncc3c2)cc(C(=O)NCc2ccn(C(F)F)n2)n1C [B.160] | 149
55 | Cc1c(S(=O)(=O)c2ccc3c(c2)c(O)nn3C)cc(C(=O)NCc2c(F)ccc3cnn(C4CC4)c23)n1C [B.111] | 142
56 | Cc1c(S(=O)(=O)c2ccc3[nH]ncc3c2)cc(C(=O)NCc2c(F)ccn(C)c2=O)n1C [B.181] | 0.23
57 | Cc1c(S(=O)(=O)c2ccc3[nH]ncc3c2)cc(C(=O)NCCN(C)c2ncc(F)cn2)n1C [B.198] | 16
58 | Cc1c(S(=O)(=O)c2ccc3c(cnn3C)c2)cc(C(=O)NCc2c(F)ccnc2N2CCC(C(=O)O)C2)n1C (stereo not shown) [B.48] | 0.15
59 | Cc1c(S(=O)(=O)c2cc(F)c3[nH]ncc3c2)cc(C(=O)NCc2ncccc2F)n1C [B.58] | 2.3
60 | Cc1c(S(=O)(=O)c2ccc3[nH]ncc3c2)cc(C(=O)NCc2c(F)ccc(OCc3ccc(C(=O)O)cc3)c2F)n1C [B.123] | < 0.15
61 | Cc1c(S(=O)(=O)c2ccc3[nH]ncc3c2)cc(C(=O)NCc2c(Cl)cc[nH]c2=O)n1C [B.187] | 0.61
62 | Cc1c(S(=O)(=O)c2ccc3[nH]ncc3c2)cc(C(=O)NCc2c(F)cc(CN(C)C)cc2F)n1C [B.68] | 4.1
63 | Cc1cc(C)n(C)c(=O)c1CNC(=O)c1cc(S(=O)(=O)c2ccc3[nH]ncc3c2)c(C)n1C [B.164] | 0.85
64 | Cc1c(S(=O)(=O)c2ccc3[nH]ncc3c2)cc(C(=O)NNc2c(F)cccc2F)n1C [B.75] | 9.6
65 | Cc1c(S(=O)(=O)c2cc(F)c3[nH]ncc3c2)cc(C(=O)NCc2cccc3cnn(C)c23)n1C [B.9] | 0.53
66 | Cc1c(S(=O)(=O)c2ccc3[nH]ncc3c2)cc(C(=O)NCc2cncn2C)n1C [B.146] | 29
67 | Cc1c(S(=O)(=O)c2ccc3c(cnn3C)c2)cc(C(=O)NCc2c(F)ccc3cnn(C4CC4)c23)n1CCCC#N [B.61] | 2.6
68 | Cc1c(S(=O)(=O)c2cc3cn[nH]c3cn2)cc(C(=O)NCc2cccc3cnn(C4CC4)c23)n1C [B.42] | 9.3
69 | Cc1c(S(=O)(=O)c2ccc3[nH]ncc3c2)cc(C(=O)N[C@H](C)c2c(F)cccc2F)n1C (single isomer, unassigned) [B.65] | 65
70 | Cc1c(S(=O)(=O)c2cc(Cl)c3[nH]ncc3c2)cc(C(=O)NS(=O)(=NCC(F)(F)F)c2ccccc2)n1C (stereo not shown) [B.195] | 12

From patent publication US20260226034A1 (The Rockefeller University, priority 2023, published 2026)
